Results from patent US20090030013A1, “SUBSTITUTED TETRAHYDRO-QUINOLINE-SULFONAMIDE COMPOUNDS, THEIR PREPARATION AND USE AS MEDICAMENTS” (LABORATORIES DEL DR. ESTEVE, S.A., priority 2007, published 2009).
Structures can show the parent of a compound that is named as a salt.

Biological target: T1, 5HT6-human recombinant receptor (Homo sapiens, UniProt P50406)
T1 construct: purchased Receptor Biology; host or cells: HEK-293 cell membranes
Experiment: Binding to serotonin receptor 5-HT6 ([3H]-LSD radioligand displacement)
Details: [3H]-LSD 2.7 nM, HEK-293 cell membranes
Method: I) Binding to Serotonin Receptor 5-HT6
Cell membranes of HEK-293 cells expressing the 5HT6-human recombinant receptor were supplied by Receptor Biology. In said membranes the receptor concentration is 2.18 pmol/mg protein and the protein concentration is 9.17 mg/ml. The experimental protocol follows the method of B. L. Roth et al. [B. L. Roth, S. C. Craigo, M. S. Choudhary, A. Uluer, F. J. Monsma, Y. Shen, H. Y. Meltzer, D. R. Sibley: Binding of Typical and Atypical Antipsychotic Agents to 5-Hydroxytryptamine-6 and Hydroxytryptamine-7 Receptors. The Journal of Pharmacology and Experimental Therapeutics, 1994, 268, 1403] with the following slight changes. The respective part of the literature description is hereby incorporated by reference and forms part of the disclosure.
The commercial membrane is diluted (1:40 dilution) with the binding buffer: 50 mM Tris-HCl, 10 mM MgCl2, 0.5 mM EDTA (pH 7.4). The radioligand used is [^3H]-LSD at a concentration of 2.7 nM with a final volume of 200 μl. […] Non-specific binding is determined in the presence of 100 μM of serotonin. […] The inhibition constants (Ki, nM) were calculated by non-linear regression analysis using the program EBDA/LIGAND [Munson and Rodbard, Analytical Biochemistry, 1980, 107, 220]., the respective part of which is hereby incorporated by reference and forms part of the disclosure.

T1 sequence (P50406 whole entry): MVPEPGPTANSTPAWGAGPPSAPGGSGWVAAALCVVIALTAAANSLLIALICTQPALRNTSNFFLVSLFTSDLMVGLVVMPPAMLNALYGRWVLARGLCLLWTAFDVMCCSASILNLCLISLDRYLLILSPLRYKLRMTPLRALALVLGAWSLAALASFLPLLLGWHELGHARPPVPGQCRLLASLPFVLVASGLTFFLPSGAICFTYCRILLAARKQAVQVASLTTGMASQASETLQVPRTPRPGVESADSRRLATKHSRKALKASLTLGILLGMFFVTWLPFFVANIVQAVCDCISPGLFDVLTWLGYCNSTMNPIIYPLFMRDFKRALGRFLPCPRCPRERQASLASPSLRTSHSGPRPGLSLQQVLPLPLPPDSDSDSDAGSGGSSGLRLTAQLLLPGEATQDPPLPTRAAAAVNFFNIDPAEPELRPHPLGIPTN

Ki (tests in triplicate): 0.0314 ± 0.0008 µM
inhibition at 0.1 µM (compound at 10^−7 M): 85.8%
SMILES: CC1CCc2c(N3CCNCC3)cccc2N1S(=O)(=O)c1cccc2ccccc12 (stereo not drawn) [Compound 3, 1,2,3,4-tetrahydro-2-methyl-5-(piperazin-1-yl)-1-α-naphthylsulfonyl)quinoline trifluoroacetate]
